In US8394785B2, “Methods for the treatment and amelioration of urticaria” (Jado Technologies GmbH, priority 2005, dated 2013):

What was measured:
[1] = system: human basophils; assay: Histamine release assay, C5a induced, human basophils; type: cell-based
Experimental: Human basophils were isolated from whole blood using ficoll paque (D=1.077). Briefly, heparinized whole blood was diluted 1:3 with PBS (w/o Ca and Mg), layered on the ficoll paque solution, and centrifuged for 30 min at 400×g. Low-density particles such as lymphocytes, monocytes, basophils, and platelets were recovered from the interface between the plasma and ficoll solution. The cell suspension from the interface was centrifuged twice at 200×g for 10 min for removal of thrombocytes from the basophil fraction. The number of basophils in the cell suspension was determined by Toluidin blue staining. The yield of basophils was approximately 2%. These pre-purified basophils were used for the histamine release assay. For the cytokine release assays, basophils were further purified using the “Basophil Isolation Kit” for depletion of non-basophils from the interface cell suspension. […] The quantification of histamine levels was achieved using an automated histamine-analyser system (Firm Borgwelt Technik). The wavelength of the excitation was 355-360 nm and the emission wavelength of fluorescence measurement was 450-460 nm. The intensity of fluorescence was directly proportional to the concentration of histamine in the samples. The amount of released histamine was calculated according to the following formula: net histamine release=(release−blank)×(100/complete). […]

[2] = system: allergic volunteers with known type-1-sensitizations; assay: Prick test with histamine after topical pre-treatment, wheal size; type: in vivo, human; conditions: n = 5; for histamine-prick wheal ± standard error: miltefosine pre-treatment (6% solution, topical, 2 h before); for histamine-prick % inhibition ± standard error (by miltefosine pre-treatment): versus placebo pre-treatment
From the text: To provide proof of concept that miltefosine inhibits IgE-dependent human mast cell stimulation and mediator release in vivo we performed a study on selected allergic volunteers with known type-1-sensitizations (n=5). The volunteers were subjected to standard prick testing with their known allergens on both forearms as well as with positive (histamine) and negative (saline) controls (Table 3). Using a double blind, placebo controlled approach, one forearm of each test person was pre-treated with topical miltefosine (6% solution). The contralateral side was subjected to a pre-treatment with a placebo solution (saline), both two hours prior to the prick test. Subsequently, developing skin symptoms were measured with high-quality standardized methods, i.e. macroscopic standard prick test-evaluation (Heinzerling et al 2005), volumetric imaging, thermography, and digital time lapse photography (DTLP). Volunteers known to suffer from permanent severe diseases, especially those affecting the immune system, were excluded from the study. None of the volunteers took any oral […] or leukotriene antagonists within 7 days prior to the beginning of the study. Moreover, none of them took any oral or depot corticosteroids or other immunosuppressive drugs within 21 days before the testing. The course of developing lesions (wheal and erythema size) was assessed macroscopically by measuring vertical and perpendicular diameter of wheal and erythema size. Subsequently, the sum of both diameters was divided by two. In addition, volumetric and thermographic imaging as well as DTLP was performed before and at defined time points after prick testing. To assess the course of developing prick test lesions, wheal size was assessed macroscopically by measuring the diameters at distinct time points after prick testing.

CCCCCCCCCCCCCCCCOP(=O)([O-])OCC[N+](C)(C)C [Compound 3, 1-hexadecylphosphoryl-choline]
inhibition at 25 µM [1]: 75%
histamine-prick wheal ± standard error ([2]; 15 minutes after prick testing): 4.40 ± 0.86 mm
histamine-prick wheal ± standard error ([2]; 20 minutes after prick testing): 4.30 ± 1.08 mm
histamine-prick wheal ± standard error ([2]; 30 minutes after prick testing): 3.40 ± 1.43 mm
histamine-prick % inhibition ± standard error (by miltefosine pre-treatment) ([2]; 15 minutes after prick testing): 22.4 ± 14.2%
histamine-prick % inhibition ± standard error (by miltefosine pre-treatment) ([2]; 20 minutes after prick testing): 19.2 ± 23.1%
histamine-prick % inhibition ± standard error (by miltefosine pre-treatment) ([2]; 30 minutes after prick testing): −7.9 ± 23.2%
